Experiment [1] deals with T1, Androgen receptor (Rattus norvegicus, UniProt P15207).
T1 sequence (P15207 whole entry): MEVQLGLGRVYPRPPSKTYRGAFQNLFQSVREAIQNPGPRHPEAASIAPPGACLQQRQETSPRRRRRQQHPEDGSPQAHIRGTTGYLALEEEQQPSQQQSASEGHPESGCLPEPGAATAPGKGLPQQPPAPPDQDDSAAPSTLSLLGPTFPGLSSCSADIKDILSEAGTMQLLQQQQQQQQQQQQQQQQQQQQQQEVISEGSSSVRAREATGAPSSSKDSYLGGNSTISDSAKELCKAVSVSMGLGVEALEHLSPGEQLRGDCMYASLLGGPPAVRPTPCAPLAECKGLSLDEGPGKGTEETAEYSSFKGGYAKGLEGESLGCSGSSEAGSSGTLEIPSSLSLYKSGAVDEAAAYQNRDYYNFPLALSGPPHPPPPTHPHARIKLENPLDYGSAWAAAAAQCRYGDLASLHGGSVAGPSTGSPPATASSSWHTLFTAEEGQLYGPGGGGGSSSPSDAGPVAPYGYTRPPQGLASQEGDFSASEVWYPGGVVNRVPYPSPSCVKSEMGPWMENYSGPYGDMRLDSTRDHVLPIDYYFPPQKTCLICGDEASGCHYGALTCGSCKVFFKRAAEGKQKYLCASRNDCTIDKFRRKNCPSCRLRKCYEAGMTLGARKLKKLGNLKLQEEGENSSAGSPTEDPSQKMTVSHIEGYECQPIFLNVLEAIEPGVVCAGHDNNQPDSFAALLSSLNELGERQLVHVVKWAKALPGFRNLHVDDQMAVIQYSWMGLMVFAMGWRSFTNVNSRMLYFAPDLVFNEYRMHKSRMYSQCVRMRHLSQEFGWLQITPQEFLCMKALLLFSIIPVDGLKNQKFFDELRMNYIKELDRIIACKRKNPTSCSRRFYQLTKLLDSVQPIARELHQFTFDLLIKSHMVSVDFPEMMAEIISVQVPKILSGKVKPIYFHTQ
It counts as functional.

Experiment [2] deals with T1, Androgen receptor. It is filed as functional. This is another data set of the same source.
For the next experiment, the target named is T2, B1 bradykinin receptor (Homo sapiens, UniProt P46663).
T2 sequence (P46663 whole entry): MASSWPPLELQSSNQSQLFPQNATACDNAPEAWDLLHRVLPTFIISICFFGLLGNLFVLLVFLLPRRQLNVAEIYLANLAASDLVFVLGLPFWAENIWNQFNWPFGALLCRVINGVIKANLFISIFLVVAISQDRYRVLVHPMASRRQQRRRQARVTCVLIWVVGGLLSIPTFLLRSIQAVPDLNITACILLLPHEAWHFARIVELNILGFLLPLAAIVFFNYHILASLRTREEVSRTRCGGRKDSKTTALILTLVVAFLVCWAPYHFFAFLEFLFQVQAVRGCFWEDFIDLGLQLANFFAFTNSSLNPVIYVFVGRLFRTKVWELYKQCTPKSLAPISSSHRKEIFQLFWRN

Experiment [3] addresses Voltage-dependent N-type calcium channel subunit alpha-1B (Rattus norvegicus, UniProt Q02294). It is filed as functional.
In a further experiment the target is T3, Progesterone receptor (Homo sapiens, UniProt P06401).
T3 sequence (P06401 whole entry): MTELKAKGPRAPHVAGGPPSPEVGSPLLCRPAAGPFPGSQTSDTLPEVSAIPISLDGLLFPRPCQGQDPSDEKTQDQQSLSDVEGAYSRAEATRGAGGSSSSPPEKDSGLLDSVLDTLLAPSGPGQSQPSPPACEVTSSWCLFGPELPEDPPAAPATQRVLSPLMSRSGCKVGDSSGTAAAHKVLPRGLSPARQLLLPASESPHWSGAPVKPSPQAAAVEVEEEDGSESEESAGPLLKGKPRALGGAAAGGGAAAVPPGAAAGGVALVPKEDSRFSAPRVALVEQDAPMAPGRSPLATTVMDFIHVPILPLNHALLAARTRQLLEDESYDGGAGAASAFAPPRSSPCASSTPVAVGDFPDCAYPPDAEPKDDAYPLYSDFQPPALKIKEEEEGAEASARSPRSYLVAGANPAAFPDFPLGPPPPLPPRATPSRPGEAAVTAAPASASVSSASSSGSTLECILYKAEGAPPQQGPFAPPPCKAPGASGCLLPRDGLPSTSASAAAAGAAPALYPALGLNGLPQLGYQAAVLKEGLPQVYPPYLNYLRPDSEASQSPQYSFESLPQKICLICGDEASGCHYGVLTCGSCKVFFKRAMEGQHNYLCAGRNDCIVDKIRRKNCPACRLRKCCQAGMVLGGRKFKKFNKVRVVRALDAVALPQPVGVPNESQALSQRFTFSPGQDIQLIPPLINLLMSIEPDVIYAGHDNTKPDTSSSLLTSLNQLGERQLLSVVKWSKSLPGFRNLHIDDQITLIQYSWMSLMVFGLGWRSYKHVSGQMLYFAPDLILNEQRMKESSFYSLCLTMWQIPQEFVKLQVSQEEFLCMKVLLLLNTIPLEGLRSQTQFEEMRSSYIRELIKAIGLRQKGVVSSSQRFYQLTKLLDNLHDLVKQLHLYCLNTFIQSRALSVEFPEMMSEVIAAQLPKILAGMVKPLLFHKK

Experiment [4] addresses T4, 5-hydroxytryptamine receptor 1A (Homo sapiens, UniProt P08908).
T4 sequence (P08908 whole entry): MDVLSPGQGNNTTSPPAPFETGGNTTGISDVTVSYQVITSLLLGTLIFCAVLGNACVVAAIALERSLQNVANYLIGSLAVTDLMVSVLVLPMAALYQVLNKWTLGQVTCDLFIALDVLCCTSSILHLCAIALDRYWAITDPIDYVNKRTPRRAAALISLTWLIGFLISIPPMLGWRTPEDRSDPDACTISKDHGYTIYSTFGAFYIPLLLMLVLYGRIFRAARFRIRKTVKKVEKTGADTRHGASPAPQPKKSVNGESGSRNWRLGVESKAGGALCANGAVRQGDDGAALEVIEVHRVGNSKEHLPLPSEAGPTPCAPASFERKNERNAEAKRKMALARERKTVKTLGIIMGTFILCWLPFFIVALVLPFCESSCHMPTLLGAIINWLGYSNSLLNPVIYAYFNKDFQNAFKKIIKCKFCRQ

Experiment [5] concerns the target T1, Androgen receptor.
Experiment [6] addresses Beta-3 adrenergic receptor (Homo sapiens, UniProt P13945).
The target in experiment [7] is Gamma-aminobutyric acid receptor subunit alpha-1/alpha-2/beta-2/gamma-2 (Homo sapiens, UniProt P14867+P18507+P47869+P47870). It is filed as functional, cell-based.

Experimental findings from ChEMBL document CHEMBL5291721, “A preclinical secondary pharmacology resource illuminates target-adverse drug reaction associations of marketed drugs” (Nat Commun, 2023) are described below.

Where a SMILES comes first, the peptide text is derived from it. [ ]: non-standard residue; d: D form. pGlu = O=C1CC[C@@H](C(=O)O)N1; Thz = O=C(O)[C@@H]1CSCN1 A value given as a limit tells only on which side of the number the result lay.
Further: assay procedure not described here.

Chain of Gamma-aminobutyric acid receptor subunit alpha-1/alpha-2/beta-2/gamma-2 (P14867 whole entry): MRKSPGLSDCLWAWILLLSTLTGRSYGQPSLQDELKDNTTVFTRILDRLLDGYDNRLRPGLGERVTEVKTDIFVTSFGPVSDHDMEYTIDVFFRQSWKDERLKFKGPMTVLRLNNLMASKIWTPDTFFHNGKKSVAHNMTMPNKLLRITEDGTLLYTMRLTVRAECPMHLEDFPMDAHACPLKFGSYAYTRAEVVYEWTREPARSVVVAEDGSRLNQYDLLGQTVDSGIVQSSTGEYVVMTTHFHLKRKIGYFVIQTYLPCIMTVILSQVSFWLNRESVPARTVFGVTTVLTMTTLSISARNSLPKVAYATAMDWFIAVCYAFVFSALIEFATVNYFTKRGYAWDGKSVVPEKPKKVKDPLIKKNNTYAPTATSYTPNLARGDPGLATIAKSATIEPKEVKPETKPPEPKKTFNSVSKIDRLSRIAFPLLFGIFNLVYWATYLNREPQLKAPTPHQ
Chain of Gamma-aminobutyric acid receptor subunit alpha-1/alpha-2/beta-2/gamma-2 (P47870 whole entry): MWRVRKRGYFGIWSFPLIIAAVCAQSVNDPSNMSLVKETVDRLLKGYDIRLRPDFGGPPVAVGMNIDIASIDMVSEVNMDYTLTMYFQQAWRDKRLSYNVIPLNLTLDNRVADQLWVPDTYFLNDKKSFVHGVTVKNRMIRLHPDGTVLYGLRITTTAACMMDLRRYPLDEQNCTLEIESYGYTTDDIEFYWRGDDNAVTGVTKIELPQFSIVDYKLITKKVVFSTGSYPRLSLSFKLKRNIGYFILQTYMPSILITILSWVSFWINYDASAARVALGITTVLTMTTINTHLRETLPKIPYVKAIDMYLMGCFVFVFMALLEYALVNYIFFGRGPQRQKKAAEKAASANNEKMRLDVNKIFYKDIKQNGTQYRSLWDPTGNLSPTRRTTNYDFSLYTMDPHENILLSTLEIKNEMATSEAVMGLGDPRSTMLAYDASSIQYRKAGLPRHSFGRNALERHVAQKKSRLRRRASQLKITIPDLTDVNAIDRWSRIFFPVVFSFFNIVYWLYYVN
Chain of Gamma-aminobutyric acid receptor subunit alpha-1/alpha-2/beta-2/gamma-2 (P18507 whole entry): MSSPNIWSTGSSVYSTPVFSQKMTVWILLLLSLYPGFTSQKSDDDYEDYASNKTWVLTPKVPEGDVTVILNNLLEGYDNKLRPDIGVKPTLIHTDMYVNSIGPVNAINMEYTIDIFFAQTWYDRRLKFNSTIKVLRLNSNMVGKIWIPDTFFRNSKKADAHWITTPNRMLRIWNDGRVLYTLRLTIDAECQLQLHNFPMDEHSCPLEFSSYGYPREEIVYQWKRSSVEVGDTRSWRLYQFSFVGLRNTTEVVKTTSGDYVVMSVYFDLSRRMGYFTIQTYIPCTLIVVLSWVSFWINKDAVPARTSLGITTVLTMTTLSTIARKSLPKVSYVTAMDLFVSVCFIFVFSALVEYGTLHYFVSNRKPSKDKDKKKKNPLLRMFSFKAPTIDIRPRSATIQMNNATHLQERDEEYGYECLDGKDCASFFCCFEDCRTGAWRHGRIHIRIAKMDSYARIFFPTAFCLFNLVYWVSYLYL
Chain of Gamma-aminobutyric acid receptor subunit alpha-1/alpha-2/beta-2/gamma-2 (P47869 whole entry): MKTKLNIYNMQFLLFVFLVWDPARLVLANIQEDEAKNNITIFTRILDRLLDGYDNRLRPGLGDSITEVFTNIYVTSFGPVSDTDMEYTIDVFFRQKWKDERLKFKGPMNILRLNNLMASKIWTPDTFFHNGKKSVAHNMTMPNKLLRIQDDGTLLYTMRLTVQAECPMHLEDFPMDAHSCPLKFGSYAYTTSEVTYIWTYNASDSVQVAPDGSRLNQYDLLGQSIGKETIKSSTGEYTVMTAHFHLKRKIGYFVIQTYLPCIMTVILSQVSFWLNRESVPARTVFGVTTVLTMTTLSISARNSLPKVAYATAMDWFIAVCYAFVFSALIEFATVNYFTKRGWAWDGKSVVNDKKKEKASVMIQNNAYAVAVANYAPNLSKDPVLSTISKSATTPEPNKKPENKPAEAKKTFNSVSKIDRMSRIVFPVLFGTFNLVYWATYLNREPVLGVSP
Chain of Voltage-dependent N-type calcium channel subunit alpha-1B (Q02294 whole entry): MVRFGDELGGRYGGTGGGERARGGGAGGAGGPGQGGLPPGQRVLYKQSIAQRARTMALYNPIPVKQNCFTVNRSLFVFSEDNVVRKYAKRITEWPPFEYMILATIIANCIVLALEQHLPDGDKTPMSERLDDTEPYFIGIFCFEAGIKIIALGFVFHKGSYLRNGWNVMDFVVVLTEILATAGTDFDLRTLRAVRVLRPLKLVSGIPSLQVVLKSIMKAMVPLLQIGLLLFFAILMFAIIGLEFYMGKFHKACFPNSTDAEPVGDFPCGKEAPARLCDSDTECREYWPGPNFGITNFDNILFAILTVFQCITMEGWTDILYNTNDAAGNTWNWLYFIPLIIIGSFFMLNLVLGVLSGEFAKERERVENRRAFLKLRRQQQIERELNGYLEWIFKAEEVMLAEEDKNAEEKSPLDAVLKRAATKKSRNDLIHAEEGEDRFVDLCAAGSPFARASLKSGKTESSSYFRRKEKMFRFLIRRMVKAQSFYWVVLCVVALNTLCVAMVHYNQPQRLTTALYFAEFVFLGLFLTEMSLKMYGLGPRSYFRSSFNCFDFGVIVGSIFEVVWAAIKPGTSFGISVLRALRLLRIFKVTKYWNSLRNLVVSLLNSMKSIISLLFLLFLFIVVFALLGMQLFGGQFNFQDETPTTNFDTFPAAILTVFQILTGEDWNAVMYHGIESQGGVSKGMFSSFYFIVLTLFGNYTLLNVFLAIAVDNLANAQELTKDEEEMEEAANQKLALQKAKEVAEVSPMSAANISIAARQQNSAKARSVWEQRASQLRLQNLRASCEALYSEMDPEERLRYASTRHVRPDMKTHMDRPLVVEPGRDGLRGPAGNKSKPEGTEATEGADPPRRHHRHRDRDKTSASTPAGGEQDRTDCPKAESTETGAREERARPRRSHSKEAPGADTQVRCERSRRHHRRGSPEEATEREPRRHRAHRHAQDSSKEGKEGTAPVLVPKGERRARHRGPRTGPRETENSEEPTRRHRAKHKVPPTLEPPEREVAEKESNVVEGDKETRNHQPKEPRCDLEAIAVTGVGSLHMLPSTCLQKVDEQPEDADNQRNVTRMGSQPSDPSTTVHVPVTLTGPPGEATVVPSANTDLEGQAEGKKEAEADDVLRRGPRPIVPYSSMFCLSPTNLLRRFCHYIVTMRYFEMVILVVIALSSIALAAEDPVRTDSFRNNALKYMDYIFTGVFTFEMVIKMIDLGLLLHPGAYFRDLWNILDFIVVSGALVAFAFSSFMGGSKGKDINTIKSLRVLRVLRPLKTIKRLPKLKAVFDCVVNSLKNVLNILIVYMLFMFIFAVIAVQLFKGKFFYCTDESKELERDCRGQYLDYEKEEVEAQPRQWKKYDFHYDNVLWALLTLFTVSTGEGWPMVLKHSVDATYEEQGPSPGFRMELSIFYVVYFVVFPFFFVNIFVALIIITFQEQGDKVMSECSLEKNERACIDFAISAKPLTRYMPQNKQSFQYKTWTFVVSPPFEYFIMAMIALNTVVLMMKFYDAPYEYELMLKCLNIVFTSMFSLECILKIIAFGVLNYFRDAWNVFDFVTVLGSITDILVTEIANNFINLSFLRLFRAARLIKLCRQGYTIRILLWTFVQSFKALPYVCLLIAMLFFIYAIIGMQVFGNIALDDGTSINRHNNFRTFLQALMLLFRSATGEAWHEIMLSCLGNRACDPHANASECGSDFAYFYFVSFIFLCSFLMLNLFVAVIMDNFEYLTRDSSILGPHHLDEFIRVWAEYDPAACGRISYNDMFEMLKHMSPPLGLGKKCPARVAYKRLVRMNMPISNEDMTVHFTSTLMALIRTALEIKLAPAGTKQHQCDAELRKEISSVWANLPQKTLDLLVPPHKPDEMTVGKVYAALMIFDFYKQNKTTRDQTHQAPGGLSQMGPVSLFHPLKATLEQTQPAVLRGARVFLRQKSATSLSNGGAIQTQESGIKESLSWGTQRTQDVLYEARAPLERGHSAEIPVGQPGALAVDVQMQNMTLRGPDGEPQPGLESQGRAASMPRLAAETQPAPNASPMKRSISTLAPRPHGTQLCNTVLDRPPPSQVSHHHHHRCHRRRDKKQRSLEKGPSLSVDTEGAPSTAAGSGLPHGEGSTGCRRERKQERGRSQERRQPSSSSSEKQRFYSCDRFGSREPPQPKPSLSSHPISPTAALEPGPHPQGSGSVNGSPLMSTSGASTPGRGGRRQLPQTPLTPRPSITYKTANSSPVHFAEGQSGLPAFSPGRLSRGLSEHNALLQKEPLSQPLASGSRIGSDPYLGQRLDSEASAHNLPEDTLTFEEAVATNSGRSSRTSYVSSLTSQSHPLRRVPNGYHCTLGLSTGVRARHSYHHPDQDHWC
Chain of Beta-3 adrenergic receptor (P13945 whole entry): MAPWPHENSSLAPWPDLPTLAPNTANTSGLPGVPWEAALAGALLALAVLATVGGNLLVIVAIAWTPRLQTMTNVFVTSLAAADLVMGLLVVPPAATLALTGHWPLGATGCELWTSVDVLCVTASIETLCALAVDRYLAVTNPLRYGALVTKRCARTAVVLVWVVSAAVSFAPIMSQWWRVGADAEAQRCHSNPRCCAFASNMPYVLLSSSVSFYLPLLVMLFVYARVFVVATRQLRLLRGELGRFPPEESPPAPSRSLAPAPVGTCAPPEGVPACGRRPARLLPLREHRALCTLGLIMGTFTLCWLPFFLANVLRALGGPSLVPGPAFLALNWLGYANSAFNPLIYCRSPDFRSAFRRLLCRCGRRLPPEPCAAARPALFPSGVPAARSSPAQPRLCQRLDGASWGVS

What is called AC50 is the concentration giving half of the maximal activity seen. As for `CCC(NC(C)C)C(O)c1ccc(O)c2[nH]c(=O)ccc12` (stereo not drawn) [PROCATEROL], the AC50 at Androgen receptor [1] and at Androgen receptor [2] was over 30 µM in each case.
For `O=c1c(O)c(-c2ccc(O)c(O)c2)oc2cc(O)cc(O)c12` [QUERCETIN], the half-maximal activity concentration (AC50) on B1 bradykinin receptor was over 30 µM; in [3], over 10 µM; at Progesterone receptor it was 14.1 µM; in experiment [4], over 10 µM.
`CC(=O)c1ccc(S(=O)(=O)NC(=O)NC2CCCCC2)cc1` [ACETOHEXAMIDE] yielded a concentration at half-maximal activity (AC50) at Androgen receptor [5] of over 10 µM.
As to `C=CCN1CCc2nc(N)sc2CC1` [TALIPEXOLE], the AC50 at Androgen receptor [1] and on Androgen receptor [2] was over 30 µM throughout.
The molecule `CCCN(CCC)S(=O)(=O)c1ccc(C(=O)O)cc1` [PROBENECID] had an AC50 on Androgen receptor [5] of over 10 µM.
The molecule `CCc1nc(N)nc(N)c1-c1ccc(Cl)cc1` [PYRIMETHAMINE] showed an AC50 in experiment [4] of over 10 µM.
Take `CC/C=C\C/C=C\C/C=C\C/C=C\C/C=C\CCCC(=O)OCC` [ICOSAPENT ETHYL]: the AC50 is over 30 µM on Androgen receptor [1] and 23 µM on Androgen receptor [2].
Turning to `O=C(c1cc(Cc2n[nH]c(=O)c3ccccc23)ccc1F)N1CCN(C(=O)C2CC2)CC1` [OLAPARIB], at Androgen receptor [5], the concentration at half-maximal activity (AC50) is over 30 µM.
As to `CCOC(=O)C(C)(C)Oc1ccc(Cl)cc1` [CLOFIBRATE], the AC50 is over 30 µM in [6]; over 30 µM on B1 bradykinin receptor; over 10 µM in experiment [3]; over 30 µM at Progesterone receptor; over 10 µM in [4].
Turning to `CCC(=O)O[C@](Cc1ccccc1)(c1ccccc1)[C@H](C)CN(C)C` [PROPOXYPHENE], the AC50 in [6] is over 30 µM; at B1 bradykinin receptor it was over 30 µM; in experiment [3], over 10 µM; on Progesterone receptor it was over 30 µM; in experiment [4], over 10 µM.
Turning to `CC(C)N(CCCCOCC(=O)O)c1cnc(-c2ccccc2)c(-c2ccccc2)n1`, the AC50 on Androgen receptor [1] is over 30 µM; at Androgen receptor [2] it was 19 µM.
For `c1ccc(C2(N3CCCCC3)CCCCC2)cc1` [PHENCYCLIDINE], the half-maximal activity concentration (AC50) (on Androgen receptor [1]; at Androgen receptor [2]; in experiment [7]) was over 30 µM each time.
As to `CO[C@H]1C[C@H](O[C@H]2CC[C@@]3(C)[C@H](CC[C@@H]4[C@@H]3CC[C@]3(C)[C@@H](C5=CC(=O)OC5)[C@@H](OC(C)=O)C[C@]43O)C2)O[C@@H](C)[C@@H]1O` [OLEANDRIN], the AC50 in [7] is over 30 µM.
With `O=C(O)c1ccc(NC(=O)[C@H](Cc2ccc(O)cc2)NC(=O)c2ccccc2)cc1` [BENTIROMIDE], on Androgen receptor [5], the half-maximal activity concentration (AC50) was over 10 µM.
With `Cc1cc(=O)n(-c2ccccc2)n1C` [ANTIPYRINE], the AC50 at Androgen receptor [5] was over 30 µM; at Progesterone receptor it was over 30 µM; in experiment [4] it was over 10 µM.
As to `CCC1(CCC(C)C)C(=O)NC(=O)NC1=O` [AMOBARBITAL], the AC50 at Androgen receptor [5] is over 10 µM.
Turning to `O=C1Nc2ccc(Cl)cc2C(c2ccccc2Cl)=NC1O` (stereo not drawn) [LORAZEPAM], the AC50 was over 30 µM in experiment [6]; over 30 µM at Androgen receptor [5]; over 30 µM at B1 bradykinin receptor; over 10 µM in [3]; 26.2 µM at Progesterone receptor; over 10 µM in experiment [4].
`CO/N=C(\C(=O)N[C@@H]1C(=O)N2C(C(=O)O)=C(CSc3nc(=O)c(=O)[nH]n3C)CS[C@H]12)c1csc(N)n1` [CEFTRIAXONE]: in experiment [7], the AC50 is over 30 µM.
Consider `Cc1ccnc2c1NC(=O)c1cccnc1N2C1CC1` [NEVIRAPINE], for which the AC50 in experiment [6] was over 30 µM; at B1 bradykinin receptor it was over 30 µM; in experiment [3], over 10 µM; at Progesterone receptor it was over 30 µM; in experiment [4] it was over 10 µM.
Regarding `CC(C(=O)O)c1ccc2c(c1)CC(=O)c1ccccc1S2` (stereo not drawn) [ZALTOPROFEN], the AC50 at Androgen receptor [1] and at Androgen receptor [2] was over 30 µM in each case.
Take `CC(C)NC[C@H](O)COc1ccc(CC(N)=O)cc1` [ESATENOLOL]: the AC50 on B1 bradykinin receptor is over 30 µM; in experiment [3], over 10 µM; on Progesterone receptor, over 30 µM; in [4] it was over 10 µM.
With `NNC(=O)c1ccncc1` [ISONIAZID], the half-maximal activity concentration (AC50) in [6] was over 30 µM; on B1 bradykinin receptor it was over 30 µM; in experiment [3], over 10 µM; at Progesterone receptor, over 30 µM; in experiment [4], over 10 µM.
In turn, `CC(c1cc2ccccc2s1)N(O)C(N)=O` (stereo not drawn) [ZILEUTON] registered an AC50 on Androgen receptor [5] of over 30 µM.
`CCOC(=O)c1ccc(C#Cc2ccc3c(c2)C(C)(C)CCS3)nc1` [TAZAROTENE]: the AC50 in [3] was over 10 µM; at Progesterone receptor, over 30 µM; in experiment [4], over 10 µM.
For the molecule `CCOC(=O)[C@@H](N)Cc1ccc(-c2cc(O[C@H](c3ccc(Cl)cc3-n3ccc(C)n3)C(F)(F)F)nc(N)n2)cc1` [TELOTRISTAT ETHYL], the AC50 (at Androgen receptor [1]; on Androgen receptor [2]; in [7]) was over 30 µM throughout.
Take `O=C1CC[C@@H](C(=O)N2CSC[C@H]2C(=O)O)N1` [PIDOTIMOD] ([pGlu]-[Thz]-OH): the AC50 on Androgen receptor [1] and on Androgen receptor [2] was over 30 µM in each case.
Consider `OC[C@H]1O[C@@H](Oc2cc(O)cc(/C=C/c3ccc(O)cc3)c2)[C@H](O)[C@@H](O)[C@@H]1O` [PICEID], for which the AC50 at Androgen receptor [1] and on Androgen receptor [2] was over 30 µM each time.
Turning to `COc1cc(N)c(Cl)cc1C(=O)NC1CCN(CCCOc2ccc(F)cc2)CC1OC` (stereo not drawn) [CISAPRIDE], the AC50 in experiment [6] was over 30 µM; at B1 bradykinin receptor it was over 30 µM; in [3], over 10 µM; on Progesterone receptor, over 30 µM; in experiment [4], over 10 µM.
For `COc1cc(C)c(/C=C/C(C)=C/C=C/C(C)=C/C(=O)O)c(C)c1C` [ACITRETIN], the AC50 on Androgen receptor [5] was 4.6 µM.
The molecule `CC(=O)[C@H]1CC[C@H]2[C@@H]3C[C@H](C)C4=CC(=O)CC[C@]4(C)[C@H]3[C@@H](O)C[C@]12C` [MEDRYSONE] returned a half-maximal activity concentration (AC50) on Androgen receptor [5] of 0.257 µM.
Consider `Clc1ccc(CCC(Cn2ccnc2)Sc2c(Cl)cccc2Cl)cc1` (stereo not drawn) [BUTOCONAZOLE], for which the AC50 on Androgen receptor [1] was over 30 µM; on Androgen receptor [2], 9.2 µM.
